# In US9539341B2, “Methods and compositions for targeting adipose cells in mammals” (Board of Regents, the University of Texas System, priority 2011, dated 2017):
# Read-outs that look alike come from different tables or passages of the source.
# T1: recombinant bacterially-purified full-length core mouse DCN (mDCN) (Mus musculus, UniProt P28654)
# T1 construct: cloning fragments encoding amino acids 1-354 and 45-354 of mouse DCN cDNA (OriGene); His6; made in house
# T1 sequence (P28654 17-354): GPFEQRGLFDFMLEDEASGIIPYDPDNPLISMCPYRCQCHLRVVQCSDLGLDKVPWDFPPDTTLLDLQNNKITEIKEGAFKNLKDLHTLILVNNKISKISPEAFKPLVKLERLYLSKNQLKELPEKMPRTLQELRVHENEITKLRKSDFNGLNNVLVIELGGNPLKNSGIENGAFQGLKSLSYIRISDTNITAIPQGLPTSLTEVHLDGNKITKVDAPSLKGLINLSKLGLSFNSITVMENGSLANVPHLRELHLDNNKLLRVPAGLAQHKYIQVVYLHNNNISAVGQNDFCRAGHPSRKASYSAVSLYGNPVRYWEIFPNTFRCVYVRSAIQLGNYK
# T2: recombinant bacterially-purified mouse ΔDCN (Mus musculus, UniProt P28654)
# T2 construct: cloning fragments encoding amino acids 1-354 and 45-354 of mouse DCN cDNA (OriGene); His6; made in house
# T2 sequence (P28654 45-354): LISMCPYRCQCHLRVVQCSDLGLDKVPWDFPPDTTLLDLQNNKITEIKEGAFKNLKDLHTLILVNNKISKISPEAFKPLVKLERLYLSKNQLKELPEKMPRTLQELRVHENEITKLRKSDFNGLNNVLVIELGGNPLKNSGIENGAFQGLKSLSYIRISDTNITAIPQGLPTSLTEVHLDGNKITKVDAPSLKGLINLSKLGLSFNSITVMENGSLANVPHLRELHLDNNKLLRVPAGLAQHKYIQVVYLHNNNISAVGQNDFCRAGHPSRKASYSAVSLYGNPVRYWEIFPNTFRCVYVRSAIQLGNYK
# T3: full-length glycosylated mouse DCN (mDCN*) (Mus musculus, UniProt P28654)
# T3 construct: full-length glycosylated mouse DCN (mDCN*); purchased R&D Systems; host or cells: NS0
# T3 sequence (P28654 31-354): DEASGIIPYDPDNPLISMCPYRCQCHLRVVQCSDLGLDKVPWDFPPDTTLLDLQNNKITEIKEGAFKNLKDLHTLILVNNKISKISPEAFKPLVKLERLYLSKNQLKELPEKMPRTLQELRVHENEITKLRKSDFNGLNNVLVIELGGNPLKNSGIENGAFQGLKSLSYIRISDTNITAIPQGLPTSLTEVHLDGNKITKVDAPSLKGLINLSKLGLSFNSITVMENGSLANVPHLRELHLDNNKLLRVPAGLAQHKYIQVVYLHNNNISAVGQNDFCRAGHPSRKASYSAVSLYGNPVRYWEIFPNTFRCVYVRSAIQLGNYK
# B1: Resistin: FLAG-tagged mouse resistin produced in HEK293 cells; WAT-secreted adipokine, ligand of ΔDCN (protein)
# chain: SSMPLCPIDEAIDKKIKQDFNSLFPNAIKNIGLNCWTVSSRGKLASCPEGTAVLSCSCGSACGSWDIREEKVCHCQCARIDWTAARCCKLQVAS
# Key:
# [1] = test system: cells from the kidney or peripheral blood; assay: In vivo apoptosis in non-target tissues, APO-TRACE and flow cytometry; design: species or system mice; details: 2 mg injected, 48 hrs
# Text: FIG. 15 illustrates that apoptosis induced by treatment with cytotoxic WAT7-KLAKLAK2 (SEQ ID NO:13-SEQ ID NO:31) all-D-peptide was limited to target tissue. APO-TRACE reagent (Sigma) and flow cytometry were used to detect apoptosis induction in both subcutaneous and intraperitoneal WAT cells, but not in cells from the kidney or peripheral blood.
# (§1) In some embodiments targeting peptides selective for angiogenic vasculature in adipose tissue could be used to treat obesity associated disorders, for example for weight reduction or for preventing weight gain. […] Because brown adipose tissue more vascularized, a vasculature based targeting approach would be very effective for delivery of therapeutic reagents to BAT for activation of this tissue.
# (§2) This reduction was due to the targeted depletion of ASC through apoptotic cell death as evidenced at 48 hrs after injection (see FIG. 14).
# [2] = Maximal tolerable dose (MTD) with increasing peptide doses; type: in vivo, mice
# Text: as §1
# When the therapeutic treatment of adipose associated body composition or body weight disorders such as obesity, lypodystrophy, diabetes or metabolic syndrome, fibrosis and cancer is contemplated, the appropriate dosage may also be determined using animal studies to determine the maximal tolerable dose, or MTD, of a bioactive agent per kilogram weight of the test subject. In general, at least one animal species tested is mammalian. Those skilled in the art regularly extrapolate doses for efficacy and avoiding toxicity to other species, including human. Before human studies of efficacy are undertaken, Phase I clinical studies help establish safe doses.
# as §2
# [3] = test system: CD34+CD31−CD45− cells (MSC) from lung; assay: Synchronous in vivo phage display biopanning, clones recovered from lung MSC (LSC); design: species or system mouse; details: percent of sequenced phage clones carrying the insert in lung after 4 rounds of synchronous in vivo biopanning on CD34+CD31−CD45− cells
# Text: (§3) Phage Library Screening: Random peptide libraries based on the M13-derived bacteriophage vector fUSE5 displaying inserts CX7C, CX8C, and CX9C on the pIII protein were admixed (1:1:1) to the combined 10^10 TU of mixed library for the screen performed based on the synchronous biopanning in vivo upon tail vein injection (see for example, US20050074747 and Arap, et al., Nat. Med. 8:121-127, 2002; Kolonin, et al., FASEB J. 20: 979-981, 2006).
# (§4) For competitive homing experiment, 5×10^9 TU for each of the 11 chosen phage clones were admixed and the combined 5.5×10^10 TU was injected. For validation of individual clones, 1×10^10 TU for each phage clones was injected. After 1 hr of circulation and heart perfusion with 10 ml of phosphate buffer saline (PBS), WAT, tibia/femurs, bone-associated skeletal muscle, and lungs were collected. Bone marrow was isolated by flushing tibia/femurs. Hematopoietic and endothelial cells were depleted from cell suspensions of each organ by Dynabeads (Invitrogen) coated with anti-TER119, anti-CD31, and anti-CD45 antibodies (BD Biosciences), after which the remaining cells were processed by FACS to purify CD34+CD31−CD45− cells. Bound phage were recovered by infecting K91 E. coli, quantified by phage transforming unit (TU) counting, and processed for sequencing of the peptide-coding DNA as described in Arap, et al. 2002, ibid and Kolonin, et al., 2006, ibid. For identification of conserved peptide motifs, ClustalW2 software was used.
# (§5) Methods for isolation of MSC by fluorescence-activated cell sorting (FACS) from organ cell suspensions based on the C34+CD31−CD45− immunophenotype (FIG. 8B) were combined with phage display and optimized for ASC. By adapting the previously described “synchronous in vivo biopanning” method of (Kolonin et al., 2006, ibid), a mixture of cyclic CX7C, CX8C, and CX9C (C: disulfide-bonded cysteines; X: any amino acid) random peptide libraries was screened (FIG. 1A). This approach made it possible to select MSC probes from the pool of over 10^11 combinatorial peptides. Throughout the screen, progressive enrichment in the number of phage particles recovered on MSC from WAT, as well as from the chosen control organs: lung, bone marrow, and skeletal muscle (FIG. 1B) was observed.
# (§6) After 4 rounds of synchronous in vivo biopanning, eight CX7C and CX8C sequences repeatedly recovered from ASC with frequency above 1% were identified, which were termed WAT1 through WAT8 (see Table 1 below). In parallel, a matched number of peptide inserts homing to lung stromal cells (LSC) were sequenced as a control. None of the WAT-homing peptides were enriched in the lung. Four sequences repeatedly recovered in the lung with frequency above 1%, were termed LU1 through LU4 (see Table 1 below). […] Because the focus of this study is WAT-specific MSC, this clone was excluded from further analysis. Other selected peptides were subjected to an in vivo competition assay in order to identify those with the highest specificity of binding. Equal amounts of phage for the 11 clones displaying peptides WAT1 through WAT7 (SEQ ID NOS: 1-14) and LU1 through LU4 (SEQ ID NOS: 17-24) were admixed and injected into a mouse. Homing specificity of each clone was assessed by quantifying frequency of phage coding for each peptide selected on C34+CD31−CD45− cells isolated from either WAT or lung.
# (§7) Shown in Table 1 above are the percent (%) of the sequenced phage clones that carried the indicated WAT or LU insert present within WAT (% in WAT) or lung (% in LUNG) following 4 rounds of synchronous in vivo biopanning on CD34+CD31−CD45− cells.
# [4] = test system: CD34+CD31−CD45− cells (MSC) from WAT; assay: Synchronous in vivo phage display biopanning, clones recovered from WAT MSC (ASC); design: species or system mouse; details: percent of sequenced phage clones carrying the insert in WAT after 4 rounds of synchronous in vivo biopanning on CD34+CD31−CD45− cells
# Text: as §3, §4, §5, §6, §7
# [5] = test system: C34+CD31−CD45− cells isolated from lung; assay: In vivo competition (re-homing) assay of 11 admixed phage clones, lung; design: species or system mouse; details: equal amounts of 11 phage clones mixed and injected; percent of sequenced clones on C34+CD31−CD45− cells from lung
# Description: as §4, §6
# [6] = molecular target: T1, recombinant bacterially-purified full-length core mouse DCN (mDCN); assay: ELISA binding assay, recombinant full-length core mouse DCN; details: His6-tagged protein coated at 10 μg/ml
# Text: (§8) Immunoblotting and Binding Assays: Protein preparations resolved on SDS-PAGE were blotted onto Immobilon-FL membrane (Millipore), blocked with Odyssey blocking buffer (Licor Biosciences), and probed (in PBS/0.05% Triton X-100) with goat anti-DCN (R&D Systems, 1:1,000), rabbit anti-ANX2A (Aviva, 1:1,000), rabbit anti-mouse b-actin (Abcam, 1:10,000) antibodies, or pre- and post-immune antisera against WAT7 (1:1,000) as indicated. Signal was detected by Odyssey imaging system using anti-goat IRDye 800CW or anti-rabbit IRDye 680 both from Licor Biosciences. Bovine DCN was from Sigma-Aldrich, NS0-derived murine DCN was from R&D Systems. Murine DCN cDNA was generated from WAT total RNA using SuperScript kit (Invitrogen). For bacterial expression, full-length mouse core DCN and ΔDCN isoforms were produced by cloning fragments encoding amino acids 1-354 and 45-354 of mouse DCN cDNA (OriGene) or of CLIC4 cDNA (OriGene) in-frame with the His6Tag into pET28a vector, respectively. His6-tagged proteins were purified with His-Tag kit (Novagen). […] Bound peptides or FLAG-resistin were probed with corresponding rabbit anti-peptide Genemed antibodies (1:2,000) or rabbit anti-FLAG antibodies (Sigma-Aldrich, 1:2,000) followed by secondary goat anti-rabbit HRP-conjugated antibodies (Millipore, 1:5,000) and signal detection with Ultra-TMB (Pierce) substrate and measurement of absorbance at 450 nm. […]
# [7] = test system: C34+CD31−CD45− cells isolated from WAT; assay: In vivo competition (re-homing) assay of 11 admixed phage clones, WAT; design: species or system mouse; details: equal amounts of 11 phage clones mixed and injected; percent of sequenced clones on C34+CD31−CD45− cells from WAT
# Description: as §4, §6
# [8] = molecular target: T2, recombinant bacterially-purified mouse ΔDCN; assay: ELISA binding assay, ΔDCN; details: His6-tagged protein coated at 10 μg/ml
# Text: as §8
# [9] = molecular target: T4, glycosylated bovine DCN (bDCN*) (Bos taurus, UniProt P21793); assay: ELISA binding assay, glycosylated bovine DCN; details: compared with BSA background
# T4 construct: purchased Sigma-Aldrich
# T4 sequence (P21793 31-360): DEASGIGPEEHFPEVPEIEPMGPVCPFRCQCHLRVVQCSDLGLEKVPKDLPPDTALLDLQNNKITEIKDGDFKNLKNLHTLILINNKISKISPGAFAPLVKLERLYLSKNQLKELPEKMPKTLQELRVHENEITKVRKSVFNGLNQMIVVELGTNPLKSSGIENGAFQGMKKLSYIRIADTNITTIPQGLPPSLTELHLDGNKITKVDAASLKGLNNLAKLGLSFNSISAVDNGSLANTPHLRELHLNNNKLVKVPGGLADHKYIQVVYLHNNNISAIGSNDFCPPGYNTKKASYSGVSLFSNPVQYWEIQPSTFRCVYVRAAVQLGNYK
# Text: as §8
# [10] = molecular target: T3, full-length glycosylated mouse DCN (mDCN*); assay: ELISA binding assay, glycosylated mouse DCN; details: compared with BSA background
# Text: as §8
molecule,measurement,setting,value
CC(C)C[C@@H](NC(=O)[C@@H](CCCCN)NC(=O)CCCCCNC(=O)[C@H]1CSSC[C@@H](N)C(=O)N[C@H](CO)C(=O)N[C@H](Cc2c[nH]c3ccccc23)C(=O)N[C@H](CCCCN)C(=O)N[C@H](Cc2ccc(O)cc2)C(=O)N[C@H](Cc2c[nH]c3ccccc23)C(=O)N[C@H](Cc2ccccc2)C(=O)NCC(=O)N[C@H](CCC(=O)O)C(=O)N1)C(=O)N[C@H](C)C(=O)N[C@H](CCCCN)C(=O)N[C@H](CC(C)C)C(=O)N[C@H](C)C(=O)N[C@H](CCCCN)C(=O)N[C@H](CCCCN)C(=O)N[C@H](CC(C)C)C(=O)N[C@H](C)C(=O)N[C@H](CCCCN)C(=O)N[C@H](CC(C)C)C(=O)N[C@H](C)C(=O)N[C@H](CCCCN)C(=O)O [WAT7-KLAKLAK2],apoptotic cell death in kidney or peripheral blood,[1],no apoptotic cell death was identified
same,MTD,[2],No MTD was reached
same,MTD,"[2]; mouse, in vivo, read-out: MTD",> 100 mg/kg
"YKNVDSGG [WAT-2, used as control peptide]",% in LUNG,[3],0%
same,% in WAT,[4],2.9%
same,Re-home to Lung (%),[5],2.9%
same,binding to recombinant core mouse DCN (OD450),[6],did not display DCN binding
same,Re-home to WAT (%),[7],2.1%
B1,binding to ΔDCN (OD450),[8],dose-dependent
same,binding to glycosylated bovine DCN (OD450),[9],completely inefficient in binding
same,binding to glycosylated mouse DCN (OD450),[10],completely inefficient in binding
